Measurements as given in patent US10670605B2, “Cysteine reactive probes and uses thereof” (The Scripps Research Institute, priority 2015, dated 2020).

What was measured:
Assay in all cases: Competitive isoTOP-ABPP in situ (fragment-treated cells)
Format in all cases: cell-based
[1] = biological target: cysteines in MDA-MB-231 and Ramos cells (Homo sapiens, UniProt Q9Y6G9); conditions: for isoTOP-ABPP ratio Q9Y6G9_C51: 200 μM, insitu
[2] = biological target: T1, cysteines in MDA-MB-231 and Ramos cells (Homo sapiens, UniProt Q86W42); conditions: 200 μM, insitu, 231
T1 sequence (Q86W42 1-341): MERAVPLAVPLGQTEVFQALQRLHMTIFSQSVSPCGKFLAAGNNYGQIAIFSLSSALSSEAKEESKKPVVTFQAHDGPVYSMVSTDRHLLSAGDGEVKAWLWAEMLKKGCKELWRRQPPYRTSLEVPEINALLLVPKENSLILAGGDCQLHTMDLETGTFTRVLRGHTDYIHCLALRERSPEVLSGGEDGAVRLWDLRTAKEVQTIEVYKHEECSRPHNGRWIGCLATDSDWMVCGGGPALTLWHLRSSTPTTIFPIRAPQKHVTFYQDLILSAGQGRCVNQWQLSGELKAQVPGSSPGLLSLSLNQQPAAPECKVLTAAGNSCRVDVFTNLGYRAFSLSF

[3] = biological target: T2, cysteines in MDA-MB-231 and Ramos cells (Homo sapiens, UniProt Q9NRW3)
T2 sequence (Q9NRW3 1-190): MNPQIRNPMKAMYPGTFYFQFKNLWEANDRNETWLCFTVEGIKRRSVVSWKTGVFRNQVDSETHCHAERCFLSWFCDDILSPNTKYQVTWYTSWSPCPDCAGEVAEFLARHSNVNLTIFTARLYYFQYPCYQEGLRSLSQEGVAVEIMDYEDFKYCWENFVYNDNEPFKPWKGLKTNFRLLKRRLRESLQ

[4] = biological target: cysteines in MDA-MB-231 and Ramos cells (Homo sapiens, UniProt Q96RP9)
Sequence of cysteines in MDA-MB-231 and Ramos cells (Homo sapiens, UniProt Q96RP9) (Q96RP9 37-751): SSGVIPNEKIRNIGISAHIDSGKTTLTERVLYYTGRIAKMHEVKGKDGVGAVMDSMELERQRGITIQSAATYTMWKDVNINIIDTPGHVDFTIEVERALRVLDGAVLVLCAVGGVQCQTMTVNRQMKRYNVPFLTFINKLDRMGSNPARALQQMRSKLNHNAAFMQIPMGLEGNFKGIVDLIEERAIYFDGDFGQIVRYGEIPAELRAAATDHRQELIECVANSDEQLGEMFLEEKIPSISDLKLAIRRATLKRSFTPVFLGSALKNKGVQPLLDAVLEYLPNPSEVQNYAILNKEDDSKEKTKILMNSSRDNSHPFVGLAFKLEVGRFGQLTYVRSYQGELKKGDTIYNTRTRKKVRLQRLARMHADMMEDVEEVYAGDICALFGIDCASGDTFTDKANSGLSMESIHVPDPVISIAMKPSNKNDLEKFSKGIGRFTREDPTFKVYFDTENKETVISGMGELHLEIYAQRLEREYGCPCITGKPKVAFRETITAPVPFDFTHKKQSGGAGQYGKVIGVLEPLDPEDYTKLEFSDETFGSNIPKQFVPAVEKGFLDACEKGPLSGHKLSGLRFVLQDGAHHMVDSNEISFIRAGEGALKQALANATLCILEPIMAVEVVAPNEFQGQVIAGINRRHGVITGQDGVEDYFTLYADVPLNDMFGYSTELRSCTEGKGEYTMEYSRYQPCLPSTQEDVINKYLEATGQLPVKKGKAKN

[5] = biological target: cysteines in MDA-MB-231 and Ramos cells (Homo sapiens, UniProt Q9BRF8)
Sequence of cysteines in MDA-MB-231 and Ramos cells (Homo sapiens, UniProt Q9BRF8) (Q9BRF8 whole entry): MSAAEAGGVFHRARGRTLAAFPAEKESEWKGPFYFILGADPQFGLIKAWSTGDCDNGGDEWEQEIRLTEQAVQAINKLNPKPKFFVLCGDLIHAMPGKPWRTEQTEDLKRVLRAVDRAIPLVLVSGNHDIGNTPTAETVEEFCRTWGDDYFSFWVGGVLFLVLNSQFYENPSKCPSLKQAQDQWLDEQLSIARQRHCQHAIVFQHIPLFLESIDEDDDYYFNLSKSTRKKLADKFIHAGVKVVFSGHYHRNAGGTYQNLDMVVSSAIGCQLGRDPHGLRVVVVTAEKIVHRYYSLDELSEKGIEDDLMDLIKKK

[6] = biological target: cysteines in MDA-MB-231 and Ramos cells (Homo sapiens, UniProt O14933)
Sequence of cysteines in MDA-MB-231 and Ramos cells (Homo sapiens, UniProt O14933) (O14933 whole entry): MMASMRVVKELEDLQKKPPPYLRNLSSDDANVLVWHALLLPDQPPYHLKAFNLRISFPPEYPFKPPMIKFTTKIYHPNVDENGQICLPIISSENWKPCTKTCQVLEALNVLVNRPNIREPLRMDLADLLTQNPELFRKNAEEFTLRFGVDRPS

[7] = biological target: T3, cysteines in MDA-MB-231 and Ramos cells (Homo sapiens, UniProt Q96RS6)
T3 sequence (Q96RS6 1-583): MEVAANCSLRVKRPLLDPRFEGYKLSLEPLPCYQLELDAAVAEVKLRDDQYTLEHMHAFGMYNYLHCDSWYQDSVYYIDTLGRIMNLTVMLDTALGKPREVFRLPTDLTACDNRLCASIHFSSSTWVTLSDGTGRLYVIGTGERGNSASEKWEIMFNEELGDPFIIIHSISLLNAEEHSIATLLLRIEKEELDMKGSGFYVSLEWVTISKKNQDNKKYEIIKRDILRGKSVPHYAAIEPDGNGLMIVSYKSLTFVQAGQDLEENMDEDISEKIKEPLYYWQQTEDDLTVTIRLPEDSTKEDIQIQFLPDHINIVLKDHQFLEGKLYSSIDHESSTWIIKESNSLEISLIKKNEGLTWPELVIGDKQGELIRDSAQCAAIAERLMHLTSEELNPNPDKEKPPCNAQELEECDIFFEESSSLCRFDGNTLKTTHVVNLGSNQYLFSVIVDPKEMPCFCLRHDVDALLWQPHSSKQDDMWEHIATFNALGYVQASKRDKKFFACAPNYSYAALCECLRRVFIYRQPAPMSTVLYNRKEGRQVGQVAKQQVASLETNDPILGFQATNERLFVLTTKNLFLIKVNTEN

[8] = biological target: T4, cysteines in MDA-MB-231 and Ramos cells (Homo sapiens, UniProt Q8N1F7); conditions: 200 μM, insitu
T4 sequence (Q8N1F7 1-819): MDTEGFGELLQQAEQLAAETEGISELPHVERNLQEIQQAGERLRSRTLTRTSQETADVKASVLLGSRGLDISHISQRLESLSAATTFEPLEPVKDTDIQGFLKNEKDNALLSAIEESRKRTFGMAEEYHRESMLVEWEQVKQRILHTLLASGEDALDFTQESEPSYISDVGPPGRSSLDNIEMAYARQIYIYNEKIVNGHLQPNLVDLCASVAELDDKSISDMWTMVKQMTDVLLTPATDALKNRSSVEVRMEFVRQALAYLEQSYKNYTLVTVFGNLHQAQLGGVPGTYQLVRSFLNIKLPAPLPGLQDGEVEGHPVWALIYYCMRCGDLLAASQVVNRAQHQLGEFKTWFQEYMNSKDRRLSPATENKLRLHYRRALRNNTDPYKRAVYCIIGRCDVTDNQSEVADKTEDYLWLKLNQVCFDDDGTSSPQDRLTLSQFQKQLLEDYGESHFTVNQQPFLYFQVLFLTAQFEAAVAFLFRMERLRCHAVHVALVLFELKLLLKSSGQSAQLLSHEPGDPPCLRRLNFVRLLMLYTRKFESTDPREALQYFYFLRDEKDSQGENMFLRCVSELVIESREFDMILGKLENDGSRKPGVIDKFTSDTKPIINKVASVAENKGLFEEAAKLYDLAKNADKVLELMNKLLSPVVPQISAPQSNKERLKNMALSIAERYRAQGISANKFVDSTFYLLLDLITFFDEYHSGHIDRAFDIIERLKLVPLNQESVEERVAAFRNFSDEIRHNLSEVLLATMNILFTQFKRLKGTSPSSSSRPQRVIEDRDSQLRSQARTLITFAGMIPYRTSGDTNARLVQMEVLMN

[9] = biological target: cysteines in MDA-MB-231 and Ramos cells (Homo sapiens, UniProt Q8WWI1); conditions: 200 μM, insitu
Sequence of cysteines in MDA-MB-231 and Ramos cells (Homo sapiens, UniProt Q8WWI1) (Q8WWI1 whole entry): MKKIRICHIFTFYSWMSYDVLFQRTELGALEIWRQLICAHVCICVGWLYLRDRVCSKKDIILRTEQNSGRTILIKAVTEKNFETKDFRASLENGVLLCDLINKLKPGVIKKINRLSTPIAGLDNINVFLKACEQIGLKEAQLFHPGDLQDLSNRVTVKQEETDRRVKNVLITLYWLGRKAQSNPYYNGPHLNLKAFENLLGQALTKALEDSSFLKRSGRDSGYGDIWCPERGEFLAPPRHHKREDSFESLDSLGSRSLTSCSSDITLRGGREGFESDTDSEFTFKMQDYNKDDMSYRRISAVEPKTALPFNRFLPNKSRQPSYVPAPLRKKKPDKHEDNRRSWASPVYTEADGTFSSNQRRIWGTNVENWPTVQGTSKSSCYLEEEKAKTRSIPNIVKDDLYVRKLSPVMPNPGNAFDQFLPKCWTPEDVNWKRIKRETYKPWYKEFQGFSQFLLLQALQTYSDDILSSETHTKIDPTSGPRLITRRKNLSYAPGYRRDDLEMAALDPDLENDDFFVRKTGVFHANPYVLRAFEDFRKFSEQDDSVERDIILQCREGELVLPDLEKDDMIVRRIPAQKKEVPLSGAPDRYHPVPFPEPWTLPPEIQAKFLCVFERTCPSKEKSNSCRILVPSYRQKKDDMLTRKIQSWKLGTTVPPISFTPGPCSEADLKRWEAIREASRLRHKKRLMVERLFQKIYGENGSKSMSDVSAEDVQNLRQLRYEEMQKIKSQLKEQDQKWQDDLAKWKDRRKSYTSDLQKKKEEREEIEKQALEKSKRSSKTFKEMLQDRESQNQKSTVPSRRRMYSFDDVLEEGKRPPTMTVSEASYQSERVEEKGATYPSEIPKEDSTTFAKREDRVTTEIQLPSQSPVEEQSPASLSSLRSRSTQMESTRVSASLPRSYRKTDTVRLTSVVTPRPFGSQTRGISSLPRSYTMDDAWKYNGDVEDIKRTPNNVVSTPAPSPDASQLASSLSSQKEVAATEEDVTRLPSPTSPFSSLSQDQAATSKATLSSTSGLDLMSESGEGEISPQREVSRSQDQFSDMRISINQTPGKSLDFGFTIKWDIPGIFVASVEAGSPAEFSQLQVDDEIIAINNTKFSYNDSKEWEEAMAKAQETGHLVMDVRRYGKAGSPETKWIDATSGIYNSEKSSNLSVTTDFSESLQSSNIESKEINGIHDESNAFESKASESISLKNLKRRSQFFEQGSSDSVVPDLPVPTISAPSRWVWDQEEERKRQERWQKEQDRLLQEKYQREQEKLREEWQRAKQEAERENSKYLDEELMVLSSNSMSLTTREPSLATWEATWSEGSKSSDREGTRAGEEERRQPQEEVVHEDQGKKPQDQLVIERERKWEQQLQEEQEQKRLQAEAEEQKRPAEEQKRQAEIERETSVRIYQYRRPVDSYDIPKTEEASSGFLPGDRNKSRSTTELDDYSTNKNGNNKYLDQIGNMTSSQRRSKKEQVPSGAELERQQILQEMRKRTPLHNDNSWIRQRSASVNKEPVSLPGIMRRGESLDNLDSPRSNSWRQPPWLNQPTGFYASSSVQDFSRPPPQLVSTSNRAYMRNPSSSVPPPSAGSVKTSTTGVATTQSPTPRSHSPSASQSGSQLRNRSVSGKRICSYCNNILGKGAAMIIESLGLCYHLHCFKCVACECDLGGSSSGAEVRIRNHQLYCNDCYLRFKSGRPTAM

[10] = biological target: T5, cysteines in MDA-MB-231 and Ramos cells (Homo sapiens, UniProt Q9NX18); conditions: for isoTOP-ABPP ratio Q9NX18_C83: 200 μM, insitu, 231
T5 sequence (Q9NX18 30-166): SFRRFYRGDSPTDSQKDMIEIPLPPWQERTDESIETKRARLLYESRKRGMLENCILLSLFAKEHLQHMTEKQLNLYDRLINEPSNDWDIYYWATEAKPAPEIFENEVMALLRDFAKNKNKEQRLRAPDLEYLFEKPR

[11] = biological target: cysteines in MDA-MB-231 and Ramos cells (Homo sapiens, UniProt Q96EY5)

Sequence of cysteines in MDA-MB-231 and Ramos cells (Homo sapiens, UniProt Q9Y6G9) (Q9Y6G9 whole entry): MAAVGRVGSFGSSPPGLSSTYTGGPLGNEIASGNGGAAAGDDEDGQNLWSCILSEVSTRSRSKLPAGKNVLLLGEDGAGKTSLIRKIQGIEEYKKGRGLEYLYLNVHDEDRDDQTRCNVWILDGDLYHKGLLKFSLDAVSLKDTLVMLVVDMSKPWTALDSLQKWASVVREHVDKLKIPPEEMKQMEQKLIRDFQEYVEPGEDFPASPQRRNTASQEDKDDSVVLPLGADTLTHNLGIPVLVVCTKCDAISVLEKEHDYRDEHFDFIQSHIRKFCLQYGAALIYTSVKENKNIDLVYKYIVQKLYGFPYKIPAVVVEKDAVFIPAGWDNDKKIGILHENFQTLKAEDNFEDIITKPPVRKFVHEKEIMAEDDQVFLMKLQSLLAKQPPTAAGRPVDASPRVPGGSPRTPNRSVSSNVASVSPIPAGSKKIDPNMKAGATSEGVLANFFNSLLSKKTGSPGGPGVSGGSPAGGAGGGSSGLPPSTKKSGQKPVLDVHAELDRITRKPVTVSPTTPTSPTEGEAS

COc1ccccc1OCCNC(=O)CCl [compound 28]
isoTOP-ABPP ratio Q9Y6G9_C51 [1]; 231: 0.7 | isoTOP-ABPP ratio Q86W42_C35 [2]: 1.3

Cc1ccc(C=C(C#N)C(=O)NCCN2CCOCC2)cc1 [compound 41]
isoTOP-ABPP ratio Q9Y6G9_C51 [1]; 231: 0.7 | isoTOP-ABPP ratio Q86W42_C35 [2]: 1.1 | isoTOP-ABPP ratio Q9NRW3_C130 ([3]; 200 μM, insitu, 231): 0.9 | isoTOP-ABPP ratio Q96RP9_C153 ([4]; 200 μM, insitu, 231): 1.1 | isoTOP-ABPP ratio Q9BRF8_C54 ([5]; 200 μM, insitu, 231): 0.7 | isoTOP-ABPP ratio O14933_C98 ([6]; 200 μM, insitu, 231): 0.5 | isoTOP-ABPP ratio Q96RS6_C376 ([7]; 200 μM, insitu, 231): 0.7 | isoTOP-ABPP ratio Q8N1F7_C522 [8]; 231: 0.8 | isoTOP-ABPP ratio Q8WWI1_C228 [9]; 231: 0.8

O=C(CCl)NC(=O)NC12CC3CC(CC(C3)C1)C2 [compound 12]
isoTOP-ABPP ratio Q9Y6G9_C51 [1]; 231: 6.5 | isoTOP-ABPP ratio, cysteine Q96RP9_C153 ([4]; 200 μM, insitu, 231): 20.0 | isoTOP-ABPP ratio Q9BRF8_C54 ([5]; 200 μM, insitu, 231): 1.2 | isoTOP-ABPP ratio Q9NX18_C83 [10]: 20.0 | isoTOP-ABPP ratio Q96RS6_C376 ([7]; 200 μM, insitu, 231): 1.1 | isoTOP-ABPP ratio Q8N1F7_C522 [8]; 231: 20.0 | isoTOP-ABPP ratio Q8WWI1_C228 [9]; 231: 20.0

O=C(CCl)NCCc1c[nH]c2ccccc12 [compound 13]
isoTOP-ABPP ratio Q9Y6G9_C51 ([1]; ramos): 1.5 | isoTOP-ABPP ratio, cysteine Q96RP9_C153 ([4]; 200 μM, insitu, ramos): 0.8 | isoTOP-ABPP ratio Q9BRF8_C54 ([5]; 200 μM, insitu, 231): 1.4 | isoTOP-ABPP ratio Q96RS6_C376 ([7]; 200 μM, insitu, 231): 0.7 | isoTOP-ABPP ratio Q96RS6_C376 ([7]; 200 μM, insitu, ramos): 1.2 | isoTOP-ABPP ratio Q8N1F7_C522 ([8]; ramos): 2.2 | isoTOP-ABPP ratio Q8WWI1_C228 [9]; 231: 2.0 | isoTOP-ABPP ratio Q8WWI1_C228 ([9]; ramos): 1.0

O=C(CCl)N1CCC(Cc2ccccc2)CC1 [compound 9]
isoTOP-ABPP reactivity Q86W42_C35 THOC6 [2]: 20.0 | isoTOP-ABPP reactivity Q9BRF8_C54 CPPED1 ([5]; 200 μM, insitu, 231): 2.4 | isoTOP-ABPP reactivity Q96RS6_C376 NUDCD1 ([7]; 200 μM, insitu, 231): 2.2 | isoTOP-ABPP reactivity Q96EY5_C231 FAM125A ([11]; 200 μM, insitu, 231): 1.9

COc1ccc(C2CC(c3cccs3)=NN2C(=O)CCl)cc1 (stereo not drawn) [compound 4]
isoTOP-ABPP reactivity Q9Y6G9_C51 DYNC1LI1 ([1]; 100 μM in situ 231): 3.5 | isoTOP-ABPP reactivity Q9NRW3_C130 APOBEC3C ([3]; 100 μM in situ 231): 20.0 | isoTOP-ABPP reactivity Q96RP9_C153 GFM1 ([4]; 100 μM in situ 231): 1.0 | isoTOP-ABPP reactivity Q9BRF8_C54 CPPED1 ([5]; 100 μM in situ 231): 20.0 | isoTOP-ABPP reactivity Q9NX18_C83 SDHAF2 ([10]; 100 μM in situ 231): 3.0 | isoTOP-ABPP reactivity O14933_C98 UBE2L6 ([6]; 100 μM in situ 231): 3.0 | isoTOP-ABPP reactivity Q96RS6_C376 NUDCD1 ([7]; 100 μM in situ 231): 1.6 | isoTOP-ABPP reactivity Q96EY5_C231 FAM125A ([11]; 100 μM in situ 231): 1.7

O=C(CCl)NC12CC3CC(CC(C3)C1)C2 [compound 21]
isoTOP-ABPP ratio Q9Y6G9_C51 [1]; 231: 0.6 | isoTOP-ABPP ratio, cysteine Q9NRW3_C130 ([3]; 200 μM, insitu, 231): 1.3 | isoTOP-ABPP ratio, cysteine Q96RP9_C153 ([4]; 200 μM, insitu, 231): 1.4 | isoTOP-ABPP ratio Q9NX18_C83 [10]: 1.3 | isoTOP-ABPP ratio, cysteine O14933_C98 ([6]; 200 μM, insitu, 231): 0.7 | isoTOP-ABPP ratio Q96RS6_C376 ([7]; 200 μM, insitu, 231): 1.4 | isoTOP-ABPP ratio Q8WWI1_C228 [9]; 231: 1.1 | isoTOP-ABPP ratio, cysteine Q96EY5_C231 ([11]; 200 μM, insitu, 231): 0.7

O=C(CCl)Nc1cccc2ncccc12 [compound 51]
isoTOP-ABPP ratio Q86W42_C35 [2]: 1.4 | isoTOP-ABPP ratio Q9NX18_C83 [10]: 1.0
